Measured values taken from patent US20230407365A1, “DIAGNOSTIC TOOL FOR SCREENING THE IMPACT OF PRODUCT INGREDIENTS FOR UROGENITAL MICROBIOMES THERAPIES” (priority 2022, published 2023).

Legend:
E. coli = assay: Quantitative analysis of actives for cannabinoids, culture growth by OD 600 nm (FIG. 18); assay type: cell-based; settings: aerobic conditions; compared with No treatment Ctrl
Procedure: FIGS. 17A, 17B and 18 show the results of quantitative analysis of actives for cannabinoids for Lactobacillus crispatus, Lactobacillus gasseri and E. coli. Each sample is treated with a CBD distillate, THC distillate, and De Man, Rogosa and Sharpe (MRS) agar plates as indicated on chart. Additionally, a CBD isolate of the samples is also treated.
The treatment results are measured by OD 600 nm 1715 of one embodiment.

L. crispatus [1] = assay: L. crispatus in anaerobic conditions at 37° C., OD 600 nm (FIG. 19); assay type: cell-based
Procedure: 1910. […] Confirmation as lactobacilli was confirmed by qPCR. The treatment results are measured by OD 600 nm 1715 of one embodiment.

L. gasseri [2] = assay: L. gasseri in anaerobic conditions at 37° C., OD 600 nm (FIG. 20); assay type: cell-based
Procedure: 2010. […] Confirmation as lactobacilli was confirmed by qPCR. The treatment results are measured by OD 600 nm 1715 of one embodiment.

Streptococcus pneumoniae = settings: reported; cited from earlier work
Staphylococcus aureus = settings: reported; cited from earlier work
Candida albicans = assay: CBD effects on C. albicans, normalized optical density (FIG. 16A); assay type: cell-based; settings: anaerobically cultured Candida albicans
L. gasseri [3] = assay: Inhibition results, OD 600 nm (FIG. 21); assay type: cell-based; settings: MRS broth
Procedure: (§1) Treatments included Product R 2150, Erythromycin 2152, No trt 2154, and Ctrl 2156. […] A drop in pH was expected and observed. Follow up treatments should include a positive control using a gram-positive antibiotic, e.g erythromycin, vancomycin or tetracycline, to show inhibition of the lactobacilli strains L. gasseri 2130 and L. crispatus 2140. The treatment results are measured by OD 600 nm 1715 of one embodiment.

L. crispatus [4] = assay: Inhibition results, OD 600 nm (FIG. 21); assay type: cell-based; settings: MRS broth
Procedure: as §1

With C=C(C)[C@@H]1CCC(C)=C[C@H]1c1c(O)cc(CCCCC)cc1O [CBD isolate, cannabidiol] the “treatment results measured by OD 600 nm over treatment exposure times (growth inhibition)” value (E. coli) was “relatively similar results”, the “inhibition of growth (OD 600 nm)” value (L. crispatus [1]) was “lack of inhibition” and the “inhibition of growth (OD 600 nm)” value (L. gasseri [2]) was “lack of inhibition”.
In the case of C=C(C)[C@@H]1CCC(C)=C[C@H]1c1c(O)cc(CCCCC)cc1O [CBD, cannabidiol], the inhibitory levels (Streptococcus pneumoniae) is given as “low micromolar range”, the inhibitory levels (Staphylococcus aureus) is given as “low micromolar range” and the “CBD effects on C. albicans (Normalized Optical Density over time)” value (Candida albicans) is given as “positive result”.
With CC[C@H]1OC(=O)[C@H](C)[C@@H](O[C@H]2C[C@@](C)(OC)[C@@H](O)[C@H](C)O2)[C@H](C)[C@@H](O[C@@H]2O[C@H](C)C[C@H](N(C)C)[C@H]2O)[C@](C)(O)C[C@@H](C)C(=O)[C@H](C)[C@@H](O)[C@]1(C)O [Erythromycin] the “inhibition of growth (OD 600 nm)” value (L. gasseri [3]) was “no observed inhibition of growth” and the “inhibition of growth (OD 600 nm)” value (L. crispatus [4]) was “no observed inhibition of growth”.
